Measured values taken from article PMC3652012 (Neuropharmacology, 2012).
Read-outs that look alike come from different tables or passages of the source.

What was measured:
[1] = tested on: GABAA receptor-mediated IPSCs in dentate granule cells; test: Whole-cell recording of evoked monosynaptic IPSCs in hippocampal slices; assay type: cell-based, rat; conditions: n=5; for 50% decay time of evoked IPSC: relative to control before drug; for amplitude of evoked IPSC: relative to control, p>0.05
[2] = tested on: extra-synaptic GABAA receptors in dentate granule neurons; assay type: cell-based, rat; conditions: CNQX, D-APV, TTX present
[3] = tested on: mIPSCs in dentate granule neurons; assay type: cell-based, rat; conditions: 1 μM TTX
[4] = biological target: α1(Q240W)β3γ2 GABAA receptors (Rattus norvegicus, UniProt P18508+P62813+P63079, Q268W); test: Whole-cell patch clamp, point-mutated receptor; assay type: cell-based; conditions: compared to wild-type α1β3γ2
[5] = biological target: α1β3(M286W)γ2 GABAA receptors (Rattus norvegicus, UniProt P18508+P62813+P63079, M311W); test: Whole-cell patch clamp, point-mutated receptor; assay type: cell-based; conditions: compared to wild-type α1β3γ2
[6] = biological target: α1β3(Y442W)γ2 GABAA receptors (Rattus norvegicus, UniProt P18508+P62813+P63079, Y467W); assay type: cell-based; conditions: compared to wild-type α1β3γ2
[7] = biological target: α1(S269I)β3γ2 GABAA receptors (Rattus norvegicus, UniProt P18508+P62813+P63079, S296I); test: Whole-cell patch clamp, point-mutated receptor; assay type: cell-based; conditions: compared to wild-type α1β3γ2
[8] = biological target: α1(Y410W)β3γ2 GABAA receptors (Rattus norvegicus, UniProt P18508+P62813+P63079, Y437W); test: Whole-cell patch clamp, point-mutated receptor; assay type: cell-based; conditions: compared to wild-type α1β3γ2
[9] = biological target: α1(T260F)β3γ2 GABAA receptors (Rattus norvegicus, UniProt P18508+P62813+P63079, T287F); test: Whole-cell patch clamp, point-mutated receptor; assay type: cell-based; conditions: compared to wild-type α1β3γ2
[10] = biological target: α1β3(T256F)γ2 GABAA receptors (Rattus norvegicus, UniProt P18508+P62813+P63079, T281F); test: Whole-cell patch clamp, point-mutated receptor; assay type: cell-based; conditions: compared to wild-type α1β3γ2
GABAA receptors = test: Direct activation of GABAA receptors in the absence of GABA; assay type: cell-based
[11] = biological target: T1, recombinant α1β3γ2 GABAA receptors (Rattus norvegicus, UniProt P18508+P62813+P63079); test: Whole-cell patch clamp of transfected HEK-293T cells; conditions: for effect on peak amplitude of the response to saturating GABA: 10 μM modulator with 1 mM GABA, whole-cell; for effect on peak amplitude of the response to saturating GABA / maximum enhancement of the GABA response: −50 mV; for maximum enhancement of the GABA response: co-applied 5 sec with EC5–10 GABA (1 μM), response to GABA alone = 100%
[12] = biological target: recombinant α1β3δ GABAA receptors (Rattus norvegicus, UniProt P18506+P62813+P63079); test: as above; conditions: for effect on peak response to saturating GABA: 10 μM modulator with 1 mM GABA, whole-cell, −50 mV
[13] = biological target: recombinant α4β3δ GABAA receptors (Rattus norvegicus, UniProt P18506+P28471+P63079); test: as above; conditions: 10 μM co-applied with EC5–10 GABA
[14] = biological target: recombinant α1β3 GABAA receptors (Rattus norvegicus, UniProt P62813+P63079); test: as above; conditions: 10 μM co-applied with EC5–10 GABA
[15] = tested on: recombinant GABAA receptors: six α subtypes with β3 and γ2, three β subtypes with α1 and γ2, three γ subtypes with α1 and β3; test: Whole-cell patch clamp, receptors with varying α, β or γ subtype; conditions: 10 μM co-applied with EC5–10 GABA for each isoform
[16] = biological target: T1, recombinant α1β3γ2 GABAA receptors; test: Outside-out macropatch recording, deactivation after brief GABA application; conditions: for increase of weighted mean deactivation rate / weighted mean deactivation rate in presence of modulator: 10 μM modulator co-applied with 1 mM GABA for 5 msec, −70 mV
[17] = magnolol 30 μM (Fig 1: 30–60 μM), n=7
[18] = honokiol (Fig 1: 30–60 μM), n=6

recombinant α1β3δ GABAA receptors, sequence (P62813 28-455): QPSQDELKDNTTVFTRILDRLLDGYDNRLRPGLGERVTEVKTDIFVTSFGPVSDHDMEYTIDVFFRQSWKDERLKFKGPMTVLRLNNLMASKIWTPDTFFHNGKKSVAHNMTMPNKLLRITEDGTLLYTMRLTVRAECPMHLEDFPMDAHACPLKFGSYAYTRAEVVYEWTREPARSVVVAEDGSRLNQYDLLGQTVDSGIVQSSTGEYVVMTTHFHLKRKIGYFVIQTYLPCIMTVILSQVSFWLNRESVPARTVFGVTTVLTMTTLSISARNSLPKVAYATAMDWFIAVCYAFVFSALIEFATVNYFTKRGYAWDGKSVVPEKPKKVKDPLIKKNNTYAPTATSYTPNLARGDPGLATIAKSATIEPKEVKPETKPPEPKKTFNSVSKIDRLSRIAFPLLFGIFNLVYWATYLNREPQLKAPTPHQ
recombinant α1β3δ GABAA receptors, sequence (P63079 26-473): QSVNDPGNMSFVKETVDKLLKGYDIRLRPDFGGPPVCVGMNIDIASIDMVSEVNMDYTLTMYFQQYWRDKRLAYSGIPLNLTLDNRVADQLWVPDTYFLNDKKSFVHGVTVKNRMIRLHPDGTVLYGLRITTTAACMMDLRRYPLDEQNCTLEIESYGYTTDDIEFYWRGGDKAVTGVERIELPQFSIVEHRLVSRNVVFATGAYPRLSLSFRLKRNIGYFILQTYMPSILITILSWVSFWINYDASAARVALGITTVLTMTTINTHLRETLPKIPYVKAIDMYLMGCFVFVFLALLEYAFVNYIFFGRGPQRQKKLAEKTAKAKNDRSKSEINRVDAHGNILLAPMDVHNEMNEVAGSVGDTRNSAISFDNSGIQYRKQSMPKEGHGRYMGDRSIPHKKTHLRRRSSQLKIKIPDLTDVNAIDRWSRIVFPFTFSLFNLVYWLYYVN
recombinant α1β3δ GABAA receptors, sequence (P18506 17-449 limits assumed): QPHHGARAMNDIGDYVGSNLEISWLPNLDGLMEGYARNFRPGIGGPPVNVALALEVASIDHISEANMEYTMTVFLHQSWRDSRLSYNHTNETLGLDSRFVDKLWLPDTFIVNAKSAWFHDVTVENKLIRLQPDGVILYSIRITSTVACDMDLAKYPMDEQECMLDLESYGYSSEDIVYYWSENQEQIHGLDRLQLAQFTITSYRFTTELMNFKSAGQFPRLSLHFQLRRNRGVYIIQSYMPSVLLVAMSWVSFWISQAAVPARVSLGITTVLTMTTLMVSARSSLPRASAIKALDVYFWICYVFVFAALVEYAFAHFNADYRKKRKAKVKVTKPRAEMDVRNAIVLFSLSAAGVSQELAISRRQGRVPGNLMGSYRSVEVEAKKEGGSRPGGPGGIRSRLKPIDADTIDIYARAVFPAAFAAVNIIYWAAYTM
T1 sequence (P62813 28-455): as the sequence (P62813 28-455) above
T1 sequence (P63079 26-473): as the sequence (P63079 26-473) above
T1 sequence (P18508 39-466): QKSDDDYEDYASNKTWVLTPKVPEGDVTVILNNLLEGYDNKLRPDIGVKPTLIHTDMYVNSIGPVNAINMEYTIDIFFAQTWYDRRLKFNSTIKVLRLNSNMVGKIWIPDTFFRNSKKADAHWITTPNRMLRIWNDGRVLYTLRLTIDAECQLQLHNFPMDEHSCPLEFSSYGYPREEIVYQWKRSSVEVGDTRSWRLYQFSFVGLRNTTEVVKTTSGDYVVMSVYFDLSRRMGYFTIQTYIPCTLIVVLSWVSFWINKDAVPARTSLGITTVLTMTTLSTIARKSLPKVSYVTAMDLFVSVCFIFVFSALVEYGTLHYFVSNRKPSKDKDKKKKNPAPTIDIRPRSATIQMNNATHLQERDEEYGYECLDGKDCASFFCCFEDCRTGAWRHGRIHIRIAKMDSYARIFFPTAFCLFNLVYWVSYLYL
α1(S269I)β3γ2 GABAA receptors, sequence (P62813 28-455 S296I): as the sequence (P62813 28-455) above, with S269I counted along it
α1(S269I)β3γ2 GABAA receptors, sequence (P63079 26-473): as the sequence (P63079 26-473) above
α1(S269I)β3γ2 GABAA receptors, sequence (P18508 39-466): as the sequence (P18508 39-466) above
α1(T260F)β3γ2 GABAA receptors, sequence (P62813 28-455 T287F): as the sequence (P62813 28-455) above, with T260F counted along it
α1(T260F)β3γ2 GABAA receptors, sequence (P63079 26-473, stated change not applied): as the sequence (P63079 26-473) above
α1(T260F)β3γ2 GABAA receptors, sequence (P18508 39-466): as the sequence (P18508 39-466) above
α1(Q240W)β3γ2 GABAA receptors, sequence (P62813 28-455 Q268W): as the sequence (P62813 28-455) above, with Q241W counted along it
α1(Q240W)β3γ2 GABAA receptors, sequence (P63079 26-473): as the sequence (P63079 26-473) above
α1(Q240W)β3γ2 GABAA receptors, sequence (P18508 39-466): as the sequence (P18508 39-466) above
α1β3(Y442W)γ2 GABAA receptors, sequence (P62813 28-455): as the sequence (P62813 28-455) above
α1β3(Y442W)γ2 GABAA receptors, sequence (P63079 26-473 Y467W): as the sequence (P63079 26-473) above, with Y442W counted along it
α1β3(Y442W)γ2 GABAA receptors, sequence (P18508 39-466): as the sequence (P18508 39-466) above
α1β3(M286W)γ2 GABAA receptors, sequence (P62813 28-455): as the sequence (P62813 28-455) above
α1β3(M286W)γ2 GABAA receptors, sequence (P63079 26-473 M311W): as the sequence (P63079 26-473) above, with M286W counted along it
α1β3(M286W)γ2 GABAA receptors, sequence (P18508 39-466): as the sequence (P18508 39-466) above
α1β3(T256F)γ2 GABAA receptors, sequence (P62813 28-455, stated change not applied): as the sequence (P62813 28-455) above
α1β3(T256F)γ2 GABAA receptors, sequence (P63079 26-473 T281F): as the sequence (P63079 26-473) above, with T256F counted along it
α1β3(T256F)γ2 GABAA receptors, sequence (P18508 39-466): as the sequence (P18508 39-466) above
recombinant α1β3 GABAA receptors, sequence (P62813 28-455): as the sequence (P62813 28-455) above
recombinant α1β3 GABAA receptors, sequence (P63079 26-473): as the sequence (P63079 26-473) above
α1(Y410W)β3γ2 GABAA receptors, sequence (P62813 28-455 Y437W): as the sequence (P62813 28-455) above, with Y410W counted along it
α1(Y410W)β3γ2 GABAA receptors, sequence (P63079 26-473): as the sequence (P63079 26-473) above
α1(Y410W)β3γ2 GABAA receptors, sequence (P18508 39-466): as the sequence (P18508 39-466) above
recombinant α4β3δ GABAA receptors, sequence (P28471 36-552): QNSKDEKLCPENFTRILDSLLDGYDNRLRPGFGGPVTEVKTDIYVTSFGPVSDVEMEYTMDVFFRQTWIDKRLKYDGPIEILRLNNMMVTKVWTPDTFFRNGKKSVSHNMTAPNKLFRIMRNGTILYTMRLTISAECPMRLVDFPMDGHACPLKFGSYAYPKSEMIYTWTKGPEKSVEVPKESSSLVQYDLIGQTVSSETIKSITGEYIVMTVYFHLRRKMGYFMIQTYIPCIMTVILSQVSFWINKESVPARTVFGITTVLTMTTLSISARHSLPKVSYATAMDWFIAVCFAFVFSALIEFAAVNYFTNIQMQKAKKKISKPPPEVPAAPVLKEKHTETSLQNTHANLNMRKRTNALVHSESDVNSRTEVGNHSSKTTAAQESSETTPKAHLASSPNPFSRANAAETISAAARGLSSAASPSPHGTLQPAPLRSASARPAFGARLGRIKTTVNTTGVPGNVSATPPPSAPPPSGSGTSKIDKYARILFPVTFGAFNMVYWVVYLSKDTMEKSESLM
recombinant α4β3δ GABAA receptors, sequence (P63079 26-473): as the sequence (P63079 26-473) above
recombinant α4β3δ GABAA receptors, sequence (P18506 17-449 limits assumed): as the sequence (P18506 17-449 limits assumed) above

Row | SMILES | impact of mutation on modulation [4] | impact of mutation on potentiation [5] | impact of mutation on potentiation [6] | impact of mutation on potentiation [7] | impact of mutation on potentiation [8] | impact of mutation on modulation [9] | impact of mutation on modulation [10] | concentration at which agonist activity (direct activation) was observed (GABAA receptors) | EC50 [11] [nM] | effect on peak amplitude of the response to saturating GABA [11] | maximum enhancement of the GABA response [11] [%] | EC50 [12] [nM] | effect on peak response to saturating GABA [12] | enhancement of the GABA response [13] | response (potentiation) of receptors lacking γ or δ [14] | potentiation across receptor isoforms (α, β, γ subtype selectivity) [15] | increase of weighted mean deactivation rate [16] [%] | weighted mean deactivation rate in presence of modulator [16] [ms] | further results
1 | C=CCc1ccc(O)c(-c2cc(CC=C)ccc2O)c1 [magnolol, 5,5′-diallyl-2,2′-dihydroxybiphenyl] | no impact | retained wild-type potentiation | retained wild-type potentiation | retained wild-type potentiation | retained wild-type potentiation | neither of these mutations had any impact | neither of these mutations had any impact | above 10 μM | 1240 ± 210 | no effect | 467.6±24.6 | 3400 ± 700 | nearly doubled | large enhancement, similar to that of α1β3δ | responded to a level comparable to the γ-containing receptors | potentiated to a similar degree, with no apparent selectivity among the subtypes | 171.8 | 104.3 ± 16.2 | 50% decay time of evoked IPSC ([1]; magnolol 30 μM bath applied): 267.7±7.9%; amplitude of evoked IPSC ([1]; magnolol 30 μM bath applied): 105.7±11.2%; increase of tonic GABAergic current [2, 17]: 402.5±61.7%; mIPSC amplitude ([3]; magnolol 30 μM (Fig 1: 30–60 μM)): not affected; mIPSC frequency [3, 17]: 476.2±108.5%; % area of the slower deactivation component in presence of modulator ([16]; 10 μM co-applied with 1 mM GABA for 5 msec, GABA alone 31.5±5.0): 41.8±8.1%; slow τ of deactivation in presence of modulator ([16]; 10 μM co-applied with 1 mM GABA for 5 msec, GABA alone 161.1±29.6): 228.4 ± 41.3 ms
2 | C=CCc1ccc(O)c(-c2ccc(O)c(CC=C)c2)c1 [honokiol, 3,5′-diallyl-4,2′-dihydroxybiphenyl] | no impact | retained wild-type potentiation | retained wild-type potentiation | retained wild-type potentiation | retained wild-type potentiation | neither of these mutations had any impact | neither of these mutations had any impact | above 10 μM | 1170 ± 200 | no effect | 483.4±64.4 | 3800 ± 410 | nearly doubled | large enhancement, similar to that of α1β3δ | responded to a level comparable to the γ-containing receptors | potentiated to a similar degree, with no apparent selectivity among the subtypes | 147.2 | 113.5 ± 21.0 | 50% decay time of evoked IPSC ([1]; honokiol 60 μM bath applied): 299.5±16.6%; amplitude of evoked IPSC ([1]; honokiol 60 μM bath applied): 113.3±25.0%; enhancement of tonic GABAergic current [2, 18]: 351.2±79.0%; mIPSC amplitude ([3]; honokiol (Fig 1: 30–60 μM)): not affected; mIPSC frequency [3, 18]: 378.9±46.8%
